Reference: ChEMBL document CHEMBL3745629, “Novel Amino-pyrazole Ureas with Potent In Vitro and In Vivo Antileishmanial Activity” (J Med Chem, 2015)

Legend:
Type in all cases: ADME, organism-based, Mesocricetus auratus
Settings in all cases: in vivo
[1] = Tmax in golden hamster at 50 mg/kg, po
[2] = AUC (0 to 24 hrs) in golden hamster at 50 mg/kg, po; set-up: dose 50 mg/kg, time < 24 hr, route oral
[3] = Cmax in golden hamster at 50 mg/kg, po; set-up: dose 50 mg/kg, route oral

Tmax [1]: 1.33 h
AUC(0-t) at 24 h [2]: 25400 ng·h/mL
Cmax [3]: 5680 ng/mL
Compound: O=C(Nc1cc(-c2ccccn2)n[nH]1)N1CCN(c2ccc(F)cc2)CC1
